Results from patent US9415047B2, “Use of benzo five-membered nitrogen heterocyclic piperazine or piperidine derivatives” (Liaoning Emmy Biological Pharmaceutical Co., Ltd., priority 2012, dated 2016).
pEC50: −log10 of the molar value.

Legend:
[1] = system: NA constricted rabbit aorta; assay: Relaxing effects on vascular smooth muscle constricted by noradrenaline (NA) in vitro; conditions: relaxation of rabbit aorta constricted by noradrenaline (10^−5 mol/L), mean±SEM, n=5; for pEC50: Oryctolagus cuniculus
Experimental: Adrenaline hydrochloride (AD) (10^−5 mol/L) was added into a bath tube to induce constriction, when maximal constriction was achieved, the sample was completely flushed, K-H solution was changed for every 20 min. Contents in the tube was balanced for 60 min, when baseline recovered to be stable, noradrenaline bitartrate (NA) (10^−5 mol/L) was added to induce constriction. When the later maximal constriction response was basically consistent with the former one, the prepared compound solutions were subsequently added, including compound II-84 to II-123 solutions (1×10^−10-1×10^−2 mol/L), compound II-124 to II-157 solutions (1×10^−10-1×10^−3 mol/L), to record the waveforms. Relaxing percentage of the compound was used as Y axis, maximal relaxation response was 100%, negative logarithm of different concentration was used as X axis, to draw dose effect curve (expressed in mean±SEM ( ? ), n=5).

[2] = system: high kalium concentration constricted rabbit aorta; assay: Relaxing effects on vascular smooth muscle constricted by high kalium concentration in vitro; conditions: relaxation of rabbit aorta constricted by high kalium solution (K+ 60 mmol/L), mean±SEM, n=5; for pEC50: Oryctolagus cuniculus
How it was run: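 Rabbit aortic rings pre-challenged with adrenaline (10^−5 mol/L), washed and re-equilibrated 60 min in K-H solution, then constricted with high-K+ solution; compounds added cumulatively over 1×10^−10–1×10^−2 mol/L depending on series. Relaxation expressed as % of maximal relaxation vs −log concentration; mean±SEM, n=5.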

[3] = system: AD constricted rabbit aorta; assay: Relaxing effects on vascular smooth muscle constricted by adrenaline hydrochloride (AD) in vitro; conditions: relaxation of rabbit aorta constricted by adrenaline (10^−5 mol/L), mean±SEM, n=5; for pEC50: Oryctolagus cuniculus
How it was run: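 Rabbit aortic strips in K-H solution precontracted with adrenaline hydrochloride (10^−5 mol/L) after a reproducible second contraction; compounds added cumulatively over ranges from 1×10^−10 up to 1×10^−2 mol/L depending on the compound series. Relaxation expressed as % of maximal relaxation versus −log concentration, mean±SEM, n=5.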

c1cnc(C2CCN(CCCCn3cnc4ccccc43)CC2)nc1 [II-120, N-(4-(1H-benzimidazoyl-1-yl)butyl)-4-(2-pyrimidinyl)piperidine]
pEC50 [1]: 4.52 | −logEC50 [2]: 3.32 ± 0.02 | pEC50 [3]: 4.72

c1ccc2c(C3CCN(CCCCn4nnc5ccccc54)CC3)cccc2c1 [II-122, N-(4-(1H-benzotriazole-1-yl)butyl)-4-(1-naphthyl)piperidine]
pEC50 [1]: 4.34 | −logEC50 [2]: 3.04 ± 0.03 | pEC50 [3]: 4.22

c1ccc2c(c1)nnn2CCCN1CCC(c2noc3ccccc23)CC1 [II-84, N-(3-(1H-benzotriazole-1-yl)propyl)-4-(3-benzisoxazolyl)piperidine]
pEC50 [1]: 6.17 | pEC50 [2]: 4.27 | pEC50 [3]: 6.23

Fc1ccc2c(C3CCN(CCCn4nnc5ccc(F)cc54)CC3)noc2c1 [II-88, N-(3-(6-fluoro-1H-benzotriazole-1-yl)propyl)-4-(3-(6-fluorobenzisoxazolyl))piperidine]
−logEC50 [1]: 5.73 ± 0.05 | −logEC50 [2]: 4.72 ± 0.05 | −logEC50 [3]: 5.61 ± 0.05

COc1ccc2nnn(CCCN3CCC(c4noc5ccccc45)CC3)c2c1 [II-93, N-(3-(6-methoxylbenzotriazolyl)propyl)-4-(3-benzisoxazolyl)piperidine]
pEC50 [1]: 6.07 | −logEC50 [2]: 4.11 ± 0.03 | −logEC50 [3]: 6.11 ± 0.07

c1ccc2c(c1)ncn2CCCCN1CCC(c2ccncc2)CC1 [II-119, N-(4-(1H-benzimidazoyl-1-yl)butyl)-4-(4-pyridyl)piperidine]
pEC50 [1]: 4.66 | −logEC50 [2]: 3.26 ± 0.04 | −logEC50 [3]: 4.86 ± 0.04

COc1ccc2c(C3CCN(CCCCn4nnc5ccc(C#N)cc54)CC3)noc2c1 [II-97, N-(4-(6-cyanobenzotriazolyl)butyl)-4-(3-(6-methoxylbenzisoxazolyl))piperidine]
pEC50 [1]: 5.09 | −logEC50 [2]: 3.23 ± 0.04 | −logEC50 [3]: 5.23 ± 0.06

O=Cc1ccc2nnn(CCCN3CCC(c4noc5cc(F)ccc45)CC3)c2c1 [II-92, N-(3-(6-formoxyl-1H-benzotriazole-1-yl)propyl)-4-(3-(6-fluorobenzisoxazolyl))piperidine]
pEC50 [1]: 5.73 | −logEC50 [2]: 4.32 ± 0.04 | −logEC50 [3]: 5.56 ± 0.04

COc1ccc2nnn(CCCCN3CCC(c4cccc(C(F)(F)F)c4)CC3)c2c1 [II-114, N-(4-(6-methoxyl-1H-benzotriazole-1-yl)butyl)-4-(3-trifluoromethylphenyl)piperidine]
pEC50 [1]: 4.77 | −logEC50 [2]: 3.56 ± 0.03 | −logEC50 [3]: 4.86 ± 0.03

Fc1ccc2c(C3CCN(CCCn4ncc5ccccc54)CC3)noc2c1 [II-103, N-(3-(1-benzopyrazol)propyl)-4-(3-(6-fluorobenzisoxazolyl))piperidine]
pEC50 [1]: 5.11 | pEC50 [2]: 3.21 | pEC50 [3]: 5.21

FC(F)(F)c1cccc(C2CCN(CCCCn3nnc4ccccc43)CC2)c1 [II-110, N-(4-(1H-benzotriazole-1-yl)butyl)-4-(3-trifluoromethylphenyl)piperidine]
pEC50 [1]: 6.45 | −logEC50 [2]: 5.12 ± 0.03 | −logEC50 [3]: 6.36 ± 0.03

COc1ccc2nnn(OCCN3CCC(c4noc5ccccc45)CC3)c2c1 [II-147, N-(2-(6-methoxylbenzotriazolyl)ethoxyl)-4-(3-benzisoxazolyl)piperidine]
pEC50 [1]: 4.31 | pEC50 [2]: 3.53 | pEC50 [3]: 4.03

COc1ccc2nnn(CCCN3CCC(c4noc5cc(F)ccc45)CC3)c2c1 [II-91, N-(3-(6-methoxyl-1H-benzotriazole-1-yl)propyl)-4-(3-(6-fluorobenzisoxazolyl))piperidine]
pEC50 [1]: 5.31 | −logEC50 [2]: 4.02 ± 0.05 | −logEC50 [3]: 5.23 ± 0.05

c1ccc2nc(C3CCN(CCCCn4nnc5ccccc54)CC3)cnc2c1 [II-123, N-(4-(1H-benzotriazole-1-yl)butyl)-4-(2-quinoxalinyl)piperidine]
pEC50 [1]: 4.53 | −logEC50 [2]: 3.13 ± 0.04 | pEC50 [3]: 4.83

N#Cc1ccc2nnn(CCCCN3CCC(c4cccc(C(F)(F)F)c4)CC3)c2c1 [II-115, N-(4-(6-cyano-1H-benzotriazole-1-yl)butyl)-4-(3-trifluoromethylphenyl)piperidine]
pEC50 [1]: 4.53 | −logEC50 [2]: 3.23 ± 0.02 | −logEC50 [3]: 4.79 ± 0.02

COc1ccc2nnn(CCCN3CCC(c4noc5cc(F)ccc45)CC3)c2c1 [II-140, N-(3-(6-methoxyl-1H-benzotriazole-1-yl)propyl)-4-(3-(6-fluorobenzisoxazolyl))piperidine]
−logEC50 [1]: 5.31 ± 0.05 | −logEC50 [2]: 5.02 ± 0.05 | pEC50 [3]: 5.23

Clc1cccc(C2CCN(CCCCn3cnc4ccccc43)CC2)c1 [II-107, N-(4-(1H-benzimidazoyl-1-yl)butyl)-4-(3-chlorophenyl)piperidine]
pEC50 [1]: 5.11 | −logEC50 [2]: 3.69 ± 0.02 | −logEC50 [3]: 5.03 ± 0.02

Fc1ccc2c(C3CCN(CCOn4nnc5ccccc54)CC3)noc2c1 [II-99, N-(2-(1-benzotriazolyl)ethoxyl)-4-(3-(6-fluorobenzisoxazolyl))piperidine]
pEC50 [1]: 4.04 | pEC50 [2]: 3.26 | pEC50 [3]: 4.26

Clc1cccc(C2CCN(CCCCn3nnc4ccccc43)CC2)c1 [II-108, N-(4-(1H-benzotriazole-1-yl)butyl)-4-(3-chlorophenyl)piperidine]
pEC50 [1]: 5.27 | −logEC50 [2]: 3.82 ± 0.03 | −logEC50 [3]: 5.16 ± 0.03

c1ccc2c(c1)nnn2CCCCN1CCC(C2CCCCC2)CC1 [II-121, N-(4-(1H-benzotriazole-1-yl)butyl)-4-(4-cyclohexyl)piperidine]
pEC50 [1]: 4.44 | −logEC50 [2]: 3.14 ± 0.05 | pEC50 [3]: 4.39

Cc1ccc2c(C3CCN(CCCn4nnc5ccccc54)CC3)noc2c1 [II-86, N-(3-(1H-benzotriazole-1-yl)propyl)-4-(3-(6-methylbenzisoxazolyl))piperidine]
−logEC50 [1]: 5.26 ± 0.04 | −logEC50 [2]: 4.09 ± 0.04 | −logEC50 [3]: 5.45 ± 0.04

COc1ccc2nnn(OCCN3CCC(c4noc5cc(F)ccc45)CC3)c2c1 [II-98, N-(2-(6-methoxylbenzotriazolyl)ethoxyl)-4-(3-(6-fluorobenzisoxazolyl))piperidine]
pEC50 [1]: 4.31 | pEC50 [2]: 3.53 | pEC50 [3]: 4.03

FC(F)(F)c1cccc(C2CCN(CCCCn3cnc4ccccc43)CC2)c1 [II-109, N-(4-(1H-benzimidazoyl-1-yl)butyl)-4-(3-trifluoromethylphenyl)piperidine]
pEC50 [1]: 6.32 | −logEC50 [2]: 5.01 ± 0.04 | −logEC50 [3]: 6.21 ± 0.04

Fc1ccc2nnn(CCCCN3CCC(c4cccc(C(F)(F)F)c4)CC3)c2c1 [II-113, N-(4-(6-fluoro-1H-benzotriazole-1-yl)butyl)-4-(3-trifluoromethylphenyl)piperidine]
pEC50 [1]: 5.21 | −logEC50 [2]: 4.03 ± 0.04 | −logEC50 [3]: 5.31 ± 0.04

COc1ccccc1C1CCN(CCCCn2cnc3ccccc32)CC1 [II-112, N-(4-(1H-benzimidazoyl-1-yl)butyl)-4-(2-methoxylphenyl)piperidine]
pEC50 [1]: 4.55 | −logEC50 [2]: 3.38 ± 0.03 | −logEC50 [3]: 4.76 ± 0.03

N#Cc1ccc2cnn(CCCCN3CCC(c4noc5cc(F)ccc45)CC3)c2c1 [II-104, N-(4-(6-cyanobenzopyrazol)butyl)-4-(3-(6-fluorobenzisoxazolyl))piperidine]
pEC50 [1]: 5.02 | pEC50 [2]: 3.42 | pEC50 [3]: 5.02

c1ccc2c(c1)nnn2OCCN1CCC(c2noc3ccccc23)CC1 [II-148]
pEC50 [1]: 4.04 | pEC50 [2]: 4.26 | pEC50 [3]: 4.26

Cc1ccc2nnn(CCCN3CCC(c4noc5cc(F)ccc45)CC3)c2c1 [II-90, N-(3-(6-methyl-1H-benzotriazole-1-yl)propyl)-4-(3-(6-fluorobenzisoxazolyl))piperidine]
pEC50 [1]: 5.35 | −logEC50 [2]: 4.28 ± 0.03 | −logEC50 [3]: 5.38 ± 0.03

c1coc(C2CCN(CCCCn3cnc4ccccc43)CC2)c1 [II-118, N-(4-(1H-benzimidazoyl-1-yl)butyl)-4-(2-furyl)piperidine]
pEC50 [1]: 4.23 | −logEC50 [2]: 3.53 ± 0.03 | −logEC50 [3]: 4.43 ± 0.05

Fc1ccc2c(C3CCN(CCCn4nnc5ccc(Cl)cc54)CC3)noc2c1 [II-89, N-(3-(6-chloro-1H-benzotriazole-1-yl)propyl)-4-(3-(6-fluorobenzisoxazolyl))piperidine]
−logEC50 [1]: 5.22 ± 0.04 | −logEC50 [2]: 4.12 ± 0.04 | −logEC50 [3]: 5.42 ± 0.04

COc1ccc2c(C3CCN(CCCn4nnc5ccccc54)CC3)noc2c1 [II-87, N-(3-(1H-benzotriazole-1-yl)propyl)-4-(3-(6-methoxylbenzisoxazolyl))piperidine]
−logEC50 [1]: 5.04 ± 0.03 | −logEC50 [2]: 4.12 ± 0.03 | −logEC50 [3]: 5.34 ± 0.03
